Columns and labels:
Androgen receptor = molecular target: T1, Androgen receptor (Homo sapiens, UniProt P10275); test: Binding affinity to AR
T1 sequence (P10275 whole entry): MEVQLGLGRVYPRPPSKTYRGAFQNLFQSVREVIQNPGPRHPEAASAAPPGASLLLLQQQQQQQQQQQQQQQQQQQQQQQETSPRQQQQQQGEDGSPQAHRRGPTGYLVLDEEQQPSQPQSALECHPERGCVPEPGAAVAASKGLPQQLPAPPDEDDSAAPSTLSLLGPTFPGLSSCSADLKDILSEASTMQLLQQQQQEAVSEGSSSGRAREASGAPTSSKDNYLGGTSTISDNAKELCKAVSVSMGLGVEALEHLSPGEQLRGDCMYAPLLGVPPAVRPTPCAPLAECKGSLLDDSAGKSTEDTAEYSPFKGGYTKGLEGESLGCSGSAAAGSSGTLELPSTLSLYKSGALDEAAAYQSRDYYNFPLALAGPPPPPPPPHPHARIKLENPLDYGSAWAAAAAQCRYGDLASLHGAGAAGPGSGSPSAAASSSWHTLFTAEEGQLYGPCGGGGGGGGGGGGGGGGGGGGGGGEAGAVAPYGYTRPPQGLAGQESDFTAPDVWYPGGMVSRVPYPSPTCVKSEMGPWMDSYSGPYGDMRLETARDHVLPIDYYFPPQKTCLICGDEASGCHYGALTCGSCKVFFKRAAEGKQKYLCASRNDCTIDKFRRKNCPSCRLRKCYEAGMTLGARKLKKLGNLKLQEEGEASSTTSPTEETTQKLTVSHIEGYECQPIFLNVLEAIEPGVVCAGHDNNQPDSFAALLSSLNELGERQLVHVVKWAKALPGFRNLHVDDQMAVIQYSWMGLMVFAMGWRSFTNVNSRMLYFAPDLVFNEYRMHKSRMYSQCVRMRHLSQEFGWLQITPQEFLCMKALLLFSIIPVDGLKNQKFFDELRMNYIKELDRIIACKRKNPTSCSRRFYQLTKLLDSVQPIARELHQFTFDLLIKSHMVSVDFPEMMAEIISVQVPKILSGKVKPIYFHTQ

[1] = Metabolic stability in CD-1 […] liver microsomes by HPLC-MS/MS; type: ADME, Microsome; conditions: CD-1, liver microsomes
Progesterone receptor = molecular target: T2, Progesterone receptor (Homo sapiens, UniProt P06401); test: Binding affinity to PR
T2 sequence (P06401 whole entry): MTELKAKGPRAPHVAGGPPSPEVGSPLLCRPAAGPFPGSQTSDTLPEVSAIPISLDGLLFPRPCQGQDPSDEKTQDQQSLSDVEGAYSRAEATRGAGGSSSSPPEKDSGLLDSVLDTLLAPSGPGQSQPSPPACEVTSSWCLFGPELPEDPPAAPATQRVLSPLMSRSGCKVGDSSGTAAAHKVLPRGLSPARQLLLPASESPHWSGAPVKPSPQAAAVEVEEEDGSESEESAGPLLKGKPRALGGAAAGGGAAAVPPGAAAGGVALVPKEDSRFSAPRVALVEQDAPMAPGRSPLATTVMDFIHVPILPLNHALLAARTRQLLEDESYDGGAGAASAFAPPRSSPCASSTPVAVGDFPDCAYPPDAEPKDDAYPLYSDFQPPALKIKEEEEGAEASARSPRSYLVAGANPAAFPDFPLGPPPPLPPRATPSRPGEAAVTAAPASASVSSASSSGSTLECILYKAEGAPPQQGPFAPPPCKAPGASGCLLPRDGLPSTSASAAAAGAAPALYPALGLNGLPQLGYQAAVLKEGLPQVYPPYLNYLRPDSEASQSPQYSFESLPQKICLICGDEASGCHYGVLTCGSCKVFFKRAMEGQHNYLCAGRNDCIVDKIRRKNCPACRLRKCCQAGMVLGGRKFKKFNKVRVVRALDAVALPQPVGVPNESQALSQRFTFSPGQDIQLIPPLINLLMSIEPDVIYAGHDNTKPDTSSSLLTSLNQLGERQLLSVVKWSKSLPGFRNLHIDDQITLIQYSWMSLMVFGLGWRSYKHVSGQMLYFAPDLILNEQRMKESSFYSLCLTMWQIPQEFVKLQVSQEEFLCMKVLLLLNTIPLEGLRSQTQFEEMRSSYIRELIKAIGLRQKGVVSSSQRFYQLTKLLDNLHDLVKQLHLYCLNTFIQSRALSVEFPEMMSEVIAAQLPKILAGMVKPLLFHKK

[2] = Cmax in Sprague-Dawley rat at 30 mg/kg, po; type: ADME, organism-based; set-up: dose 30 mg/kg, route oral; conditions: in vivo
[3] = Metabolic stability in human liver microsomes by HPLC-MS/MS; type: ADME, Microsome
Glucocorticoid receptor [4] = molecular target: T3, Glucocorticoid receptor (Homo sapiens, UniProt P04150); test: Agonist activity at human GR expressed in NHDF cells assessed as inhibition of IL-6 production by ELISA relative to Dexamethasone; type: functional, cell-based
T3 sequence (P04150 whole entry): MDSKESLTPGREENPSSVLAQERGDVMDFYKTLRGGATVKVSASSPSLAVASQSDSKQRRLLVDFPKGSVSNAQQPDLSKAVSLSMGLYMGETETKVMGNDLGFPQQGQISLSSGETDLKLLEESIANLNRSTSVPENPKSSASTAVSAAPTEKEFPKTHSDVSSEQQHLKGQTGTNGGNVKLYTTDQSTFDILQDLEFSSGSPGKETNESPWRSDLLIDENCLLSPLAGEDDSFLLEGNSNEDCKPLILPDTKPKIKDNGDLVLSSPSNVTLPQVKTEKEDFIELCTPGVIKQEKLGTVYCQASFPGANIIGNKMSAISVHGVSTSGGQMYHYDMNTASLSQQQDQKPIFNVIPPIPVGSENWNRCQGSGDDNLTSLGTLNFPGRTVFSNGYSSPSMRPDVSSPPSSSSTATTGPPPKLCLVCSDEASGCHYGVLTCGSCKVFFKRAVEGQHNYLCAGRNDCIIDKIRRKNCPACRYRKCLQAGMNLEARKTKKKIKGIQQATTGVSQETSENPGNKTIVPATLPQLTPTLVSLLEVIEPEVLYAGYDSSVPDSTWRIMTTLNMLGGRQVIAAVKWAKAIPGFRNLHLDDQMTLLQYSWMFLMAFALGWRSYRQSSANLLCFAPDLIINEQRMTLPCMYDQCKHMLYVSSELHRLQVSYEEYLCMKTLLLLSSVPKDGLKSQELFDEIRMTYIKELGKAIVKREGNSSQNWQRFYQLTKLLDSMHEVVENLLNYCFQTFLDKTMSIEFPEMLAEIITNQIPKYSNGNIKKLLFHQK

[5] = Selectivity ratio of Ki for GR to Ki for PR
[6] = Selectivity ratio of Ki for GR to Ki for MR
Glucocorticoid receptor [7] = molecular target: T3, Glucocorticoid receptor; test: Agonist activity at GR expressed in african green monkey CV1 cells transfected with luciferase gene linked to MMTV promoter assessed as induction of luciferase transactivation activity relative to Dexamethasone; type: functional, cell-based, CV-1

Ki (Androgen receptor): 1430 nM
half-life [1]: 30 min
Ki (Progesterone receptor): 2100 nM
Cmax [2]: 3600 ng/mL
half-life [3]: 48 min
IC50 (Glucocorticoid receptor [4]): 11 nM
Ratio Ki [5]: > 500
Ratio Ki [6]: > 500
EC50 (Glucocorticoid receptor [7]): 0.6 nM
Structure (SMILES): C[C@H]1c2c(cc(F)c(-c3cccc4cc[nH]c34)c2F)NC(C)(C)[C@@H]1O (racemic)

From ChEMBL document CHEMBL1681726, “Discovery of orally available tetrahydroquinoline-based glucocorticoid receptor agonists” (Bioorg Med Chem Lett, 2011)
